{
  "source": "paper PMC8678048",
  "about": "(Frontiers in Microbiology, 2021)",
  "molecular_target": "ASFV pS273R protease (African swine fever virus, UniProt Q00946)",
  "sequence (Q00946 whole entry, looked up)": "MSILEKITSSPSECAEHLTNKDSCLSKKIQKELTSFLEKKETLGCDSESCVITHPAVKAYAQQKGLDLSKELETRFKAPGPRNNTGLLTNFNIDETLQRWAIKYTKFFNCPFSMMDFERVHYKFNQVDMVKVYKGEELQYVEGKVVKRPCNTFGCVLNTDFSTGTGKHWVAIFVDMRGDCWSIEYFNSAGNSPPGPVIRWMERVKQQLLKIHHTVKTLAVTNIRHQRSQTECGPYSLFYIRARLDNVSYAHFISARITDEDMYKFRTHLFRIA",
  "assay_type": "biochemical",
  "note": "Positions of bridges follow the written chain, without caps; N, C: chain ends. Residues, ends and D or L forms follow the SMILES beside them.",
  "data": [
    {"smiles": "CC[C@H](C)[C@@H]1NC(=O)CNC(=O)[C@H](CO)NC(=O)[C@@H]2CSSC[C@@H](C(=O)N[C@@H](Cc3ccc(O)cc3)C(=O)O)NC(=O)[C@H](CCCCN)NC(=O)[C@@H]3CSSC[C@H](NC(=O)[C@H](CCC(N)=O)NC(=O)[C@H](Cc4ccc(O)cc4)NC(=O)[C@H](CCC(N)=O)NC(=O)[C@H](CC(N)=O)NC(=O)[C@H](Cc4ccccc4)NC(=O)[C@@H]4CCCN4C(=O)[C@@H](NC(=O)CNC(=O)[C@H](Cc4ccc(O)cc4)NC(=O)CN)CSSC[C@H](NC(=O)[C@H](Cc4ccc(O)cc4)NC(=O)CNC(=O)CNC(=O)[C@H](CCCCN)NC(=O)[C@H](Cc4ccc(O)cc4)NC(=O)CNC(=O)[C@H](CCCNC(=N)N)NC1=O)C(=O)N[C@@H](CCCCN)C(=O)NCC(=O)N[C@@H]([C@@H](C)O)C(=O)N[C@@H](Cc1ccccc1)C(=O)N[C@@H](CCCCN)C(=O)N[C@@H](CCC(N)=O)C(=O)N[C@@H]([C@@H](C)O)C(=O)N3)C(=O)N[C@@H](Cc1c[nH]cn1)C(=O)N[C@@H](CO)C(=O)N[C@@H](Cc1c[nH]cn1)C(=O)N2", "note": "[OPTX-1] (H-GYGCPFNQYQCHSHCSGIRGYKGGYCKGTFKQTCKCY-OH; disulfide 4-26, 11-34, 15-36 (inferred); N-terminus and C-terminus assumed)", "values": [
      {"measurement": "mode of inhibition of pS273R protease", "result": "competitive inhibitor of the pS273R protease"}
    ]}
  ]
}
